Data taken from publication PMC5491903, “The Selective Phosphoinoside-3-Kinase p110δ Inhibitor IPI-3063 Potently Suppresses B Cell Survival, Proliferation, and Differentiation” (Frontiers in Immunology, 2017).

Columns and labels:
[1] = system: mouse B cells; experiment: mouse B cell proliferation (CFSE); assay type: cell-based; conditions: αIgM + IL-4, 72 h
Experimental: Next, we evaluated the effects of PI3K inhibitors on B cell proliferation. We stimulated CFSE-stained cells with αIgM + IL-4 or with LPS for 72 h, or with αCD40 + IL-4 or LPS + IL-4 for 96 h. Cells were treated with vehicle or GDC-0941, IPI-3063, IPI-443, or AS-252424 at various concentrations. […] IPI-443 caused a dose-dependent decrease in proliferation, whereas AS-252424 had no effect. […] In B cells stimulated with LPS + IL-4, the inhibitors had similar trends, but with greater variability (Figure 3D). […] Overall, these experiments establish that the selective p110δ inhibitor IPI-3063 is a very potent inhibitor of B cell survival and proliferation in vitro. In addition, selective p110γ inhibition alone had no effect on B cell survival or proliferation.
Total splenocytes (A,B) or purified B cells (C–E) were pretreated with inhibitors for 30 min, then stimulated with (A,B) αIgM + IL-4 for 72 h, (C–E) LPS + IL-4 for 96 h, LPS for 72 h, or αCD40 + IL-4 for 96 h. […] The experiments in panel (C) include low concentrations of IPI-3063 (0.01 and 0.1 nM) Total numbers were determined by the number of B220^+7AAD^−CFSE^lo cells. […]
Before cell surface staining, cells were incubated with TruStain fcX in FACS buffer (0.5% BSA + 0.02% NaN3 in 1× HBSS) to block Fc receptors for 10 min on ice. […] Flow cytometric data were analyzed using FlowJo software (TreeStar). […]

[2] = system: mouse primary B cells; experiment: mouse B cell antibody class switching to IgG1; assay type: cell-based; conditions: αCD40 + IL-4, 96 h
Source text: Studies with p110δ inhibitors have shown that low PI3K signaling in B cells promotes antibody class switch recombination (CSR) and decreases differentiation into plasmablasts that secrete low-affinity IgM ([18], [19]). Activation of mouse primary B cells with αCD40 + IL-4 or LPS + IL-4 both induce IgG1 class switching while treatment with LPS alone induces the plasmablast differentiation fate (Figure 5A). In B cells stimulated with αCD40 + IL-4, IPI-3063 increased the percentage of B220^+ cells switching to IgG1 starting at 1 nM and approached the effect of GDC-0941 (Figure 5B).
Figure 5 IPI-3063 potently […] mouse B cell antibody switching and inhibits plasmablast differentiation. Purified B cells were pretreated with inhibitors, then stimulated with αCD40 + IL-4 (B) or LPS + IL-4 (C) for 96 h to induce switching to IgG1 or LPS (D) for 72 h to induce plasmablast differentiation. Class switching to IgG1 was measured by the 7AAD^−CFSE^loB220^+IgG1^+ cells [(A), upper panels]. Plasmablast percentages were calculated by % 7AAD^−CFSE^loCD138^+B220^lo population [(A), lower]. Supernatant was harvested (E) for IgM ELISA. […]
Mouse splenic B cells were purified by negative selection (eBioscience Magnisort Mouse B cell enrichment kit). B-cell purity was >95% as measured by FACS analysis (FACSCalibur and CellQuest software; BD Biosciences) using anti-B220 antibody (BioLegend). […]

Compound	effect on proliferation [1]	effect on IgG1 switching [2]	concentration that blocks/decreases proliferation [1]	concentration that increases percentage of B220+ cells switching to IgG1 [2]
O=C1NC(=O)/C(=C/c2ccc(-c3ccc(F)cc3O)o2)S1 [AS-252424, reference compound]	no effect	no effect	–	–
CC(C)n1c([C@H](C)Nc2ncnc(N)c2C#N)cc2cccc(-c3ccc(=O)n(C)c3)c2c1=O [IPI-3063]	–	–	1 nM	≥ 1 nM
